From DBAASP
≈ marks a conversion by molar mass, not a printed value. Values belong to the compound of their own block, whether it stands above or below them.

Tests used:
Test in all cases: ≥ marks a high value that may be exact or a test limit, other limits are often not marked, values filed in µg/mL are converted to µM
[1] = tested on: Acinetobacter baumannii CCARM 12005
[2] = tested on: Acinetobacter baumannii CCARM 12035
[3] = tested on: Acinetobacter baumannii CCARM 12036
[4] = tested on: Acinetobacter baumannii CCARM 12037
[5] = tested on: Bacillus subtilis KCTC 1021
[6] = tested on: Bacillus subtilis KCTC 1022
[7] = tested on: Bacillus subtilis KCTC 3068
[8] = tested on: Escherichia coli CCARM 1229
[9] = tested on: Escherichia coli CCARM 1238
[10] = tested on: Escherichia coli KCTC 1682
[11] = tested on: Escherichia coli KCTC 2571
[12] = tested on: Escherichia coli KCTC 2593
[13] = tested on: Pseudomonas aeruginosa CCARM 2002
[14] = tested on: Pseudomonas aeruginosa CCARM 2003
[15] = tested on: Pseudomonas aeruginosa CCARM 2095
[16] = tested on: Pseudomonas aeruginosa CCARM 2163
[17] = tested on: Pseudomonas aeruginosa KCTC 1637
[18] = tested on: Pseudomonas aeruginosa KCTC 2004
[19] = tested on: Pseudomonas aeruginosa KCTC 2513
[20] = tested on: Salmonella typhimurium CCARM 8003
[21] = tested on: Salmonella typhimurium CCARM 8007
[22] = tested on: Salmonella typhimurium CCARM 8009
[23] = tested on: Salmonella typhimurium KCTC 1926
[24] = tested on: Staphylococcus aureus CCARM 3089
[25] = tested on: Staphylococcus aureus CCARM 3090
[26] = tested on: Staphylococcus aureus CCARM 3108
[27] = tested on: Staphylococcus aureus CCARM 3114
[28] = tested on: Staphylococcus aureus CCARM 3126
[29] = tested on: Staphylococcus aureus KCTC 1621
[30] = tested on: Staphylococcus aureus KCTC 1916
[31] = tested on: Staphylococcus aureus KCTC 3881
[32] = tested on: Staphylococcus epidermidis KCTC 1917
[33] = tested on: Bacillus subtilis ATCC 62037
[34] = tested on: Candida albicans ATCC 10231
[35] = tested on: Cryptococcus neoformans ATCC 34881
[36] = tested on: Escherichia coli ATCC 27325
[37] = tested on: Pseudomonas putida ATCC 17426
[38] = tested on: Saccharomyces cerevisiae ATCC 44774
[39] = tested on: Salmonella enterica subsp. enterica serovar Enteritidis ATCC 13076
[40] = tested on: Staphylococcus aureus ATCC 15752
[41] = tested on: Streptococcus mutans ATCC 25175
[42] = tested on: Cronobacter sakazakii DPC 6440
[43] = tested on: Listeria monocytogenes LO28

MIC [1]: 2 µM (≈ 5.16 µg/mL) | MIC [2]: 2 µM (≈ 5.16 µg/mL) | MIC [3]: 2 µM (≈ 5.16 µg/mL) | MIC [4]: 2 µM (≈ 5.16 µg/mL) | MIC [5]: 4 µM (≈ 10.3 µg/mL) | MIC [6]: 2 µM (≈ 5.16 µg/mL) | MIC [7]: 1 µM (≈ 2.58 µg/mL) | MIC [8]: 4 µM (≈ 10.3 µg/mL) | MIC [9]: 4 µM (≈ 10.3 µg/mL) | MIC [10]: 1 µM (≈ 2.58 µg/mL) | MIC [11]: 2 µM (≈ 5.16 µg/mL) | MIC [12]: 2 µM (≈ 5.16 µg/mL) | MIC [13]: 2 µM (≈ 5.16 µg/mL) | MIC [14]: 2 µM (≈ 5.16 µg/mL) | MIC [15]: 2 µM (≈ 5.16 µg/mL) | MIC [16]: 2 µM (≈ 5.16 µg/mL) | MIC [17]: 1 µM (≈ 2.58 µg/mL) | MIC [18]: 2 µM (≈ 5.16 µg/mL) | MIC [19]: 2 µM (≈ 5.16 µg/mL) | MIC [20]: 8 µM (≈ 20.7 µg/mL) | MIC [21]: 8 µM (≈ 20.7 µg/mL) | MIC [22]: 8 µM (≈ 20.7 µg/mL) | MIC [23]: 1 µM (≈ 2.58 µg/mL) | MIC [24]: 4 µM (≈ 10.3 µg/mL) | MIC [25]: 4 µM (≈ 10.3 µg/mL) | MIC [26]: 4 µM (≈ 10.3 µg/mL) | MIC [27]: 8 µM (≈ 20.7 µg/mL) | MIC [28]: 4 µM (≈ 10.3 µg/mL) | MIC [29]: 2 µM (≈ 5.16 µg/mL) | MIC [30]: 2 µM (≈ 5.16 µg/mL) | MIC [31]: 2 µM (≈ 5.16 µg/mL) | MIC [32]: 1 µM (≈ 2.58 µg/mL)
SMILES: CC[C@H](C)[C@H](NC(=O)CNC(=O)[C@H](CCCN=C(N)N)NC(=O)[C@H](Cc1ccccc1)NC(=O)[C@@H](NC(=O)[C@H](Cc1cnc[nH]1)NC(=O)[C@H](Cc1cnc[nH]1)NC(=O)[C@H](Cc1ccccc1)NC(=O)[C@@H](N)CCCCN)[C@@H](C)CC)C(=O)N[C@@H](CCCCN)C(=O)N[C@@H](Cc1cnc[nH]1)C(=O)N[C@H](C(=O)NCC(=O)N[C@@H](CCCCN)C(=O)N[C@H](C(=O)N[C@H](C(=O)N[C@@H](Cc1cnc[nH]1)C(=O)N[C@@H](CCCN=C(N)N)C(=O)N[C@@H](CC(C)C)C(=O)N[C@H](C(=O)N[C@H](C(=O)NCC(=O)O)[C@@H](C)O)C(C)C)[C@@H](C)CC)[C@@H](C)O)C(C)C [KFHHIFRGIKHVGKTIHRLVTG]

MIC [33]: 0.637 µM (≈ 1 µg/mL) | MIC [34]: 0.637 µM (≈ 1 µg/mL) | MIC [35]: 0.637 µM (≈ 1 µg/mL) | MIC [36]: 0.637 µM (≈ 1 µg/mL) | MIC [37]: 0.637 µM (≈ 1 µg/mL) | MIC [38]: 0.637 µM (≈ 1 µg/mL) | MIC [39]: 2.55 µM (≈ 4 µg/mL) | MIC [40]: 2.55 µM (≈ 4 µg/mL) | MIC [41]: 1.27 µM (≈ 2 µg/mL)
SMILES: CC(C)[C@H](NC(=O)[C@H](CCCCN)NC(=O)CNC(=O)CNC(=O)[C@H](CCC(N)=O)NC(=O)[C@H](CCCCN)NC(=O)CNC(=O)[C@H](CCCN=C(N)N)NC(=O)CNC(=O)[C@@H](N)CCCCN)C(=O)N[C@@H](CCCN=C(N)N)C(=O)N[C@@H](C)C(=O)N[C@@H](CCCCN)C(=O)N[C@@H](C)C(=O)N[C@@H](CCCCN)C(=O)O [KGRGKQGGKVRAKAK]

MIC [33]: 8.23 µM (≈ 16 µg/mL) | MIC [34]: 8.23 µM (≈ 16 µg/mL) | MIC [35]: 4.12 µM (≈ 8 µg/mL) | MIC [36]: 4.12 µM (≈ 8 µg/mL) | MIC [37]: 8.23 µM (≈ 16 µg/mL) | MIC [38]: 8.23 µM (≈ 16 µg/mL) | MIC [39]: 8.23 µM (≈ 16 µg/mL) | MIC [40]: 16.5 µM (≈ 32 µg/mL) | MIC [41]: 16.5 µM (≈ 32 µg/mL)
SMILES: CC(C)[C@H](NC(=O)[C@H](CCCCN)NC(=O)CNC(=O)CNC(=O)[C@H](CCC(N)=O)NC(=O)[C@H](CCCCN)NC(=O)CNC(=O)[C@H](CCCN=C(N)N)NC(=O)[C@@H](N)CCCCN)C(=O)N[C@@H](CCCN=C(N)N)C(=O)N[C@@H](C)C(=O)N[C@@H](CCCCN)C(=O)N[C@@H](C)C(=O)N[C@@H](CCCCN)C(=O)N[C@H](C(=O)N[C@@H](CCCN=C(N)N)C(=O)N[C@@H](CO)C(=O)N[C@@H](CO)C(=O)O)[C@@H](C)O [KRGKQGGKVRAKAKTRSS]

MIC [33]: 0.812 µM (≈ 2 µg/mL) | MIC [34]: 0.812 µM (≈ 2 µg/mL) | MIC [35]: 0.812 µM (≈ 2 µg/mL) | MIC [36]: 0.812 µM (≈ 2 µg/mL) | MIC [37]: 0.812 µM (≈ 2 µg/mL) | MIC [38]: 0.812 µM (≈ 2 µg/mL) | MIC [39]: 0.406 µM (≈ 1 µg/mL) | MIC [40]: 0.812 µM (≈ 2 µg/mL) | MIC [41]: 0.812 µM (≈ 2 µg/mL)
SMILES: CC(C)C[C@H](NC(=O)CNC(=O)[C@H](C)NC(=O)[C@@H](N)CCCN=C(N)N)C(=O)N[C@@H](CCC(N)=O)C(=O)N[C@@H](Cc1ccccc1)C(=O)N1CCC[C@H]1C(=O)N[C@H](C(=O)NCC(=O)N[C@@H](CCCCN)C(=O)N[C@@H](CC(C)C)C(=O)N[C@@H](CC(C)C)C(=O)N[C@@H](CCCCN)C(=O)N[C@@H](CCCCN)C(=O)N[C@@H](CC(C)C)C(=O)N[C@@H](CC(C)C)C(=O)N[C@@H](CCCCN)C(=O)N[C@@H](CCCN=C(N)N)C(=O)N[C@@H](CC(C)C)C(=O)N[C@@H](CCCCN)C(=O)N[C@@H](CCCN=C(N)N)C(=O)O)C(C)C [RAGLQFPVGKLLKKLLKRLKR]

MIC [42]: ≥ 625 µM | MIC [43]: ≥ 156 µM
SMILES: CC[C@H](C)[C@H](NC(=O)[C@@H](N)Cc1c[nH]c2ccccc12)C(=O)N[C@@H](CCC(N)=O)C(=O)N1CCC[C@H]1C(=O)N[C@@H](C)C(=O)N[C@H](C(=O)N[C@@H](C)C(=O)N[C@H](C(=O)N[C@H](C(=O)N1CCC[C@H]1C(=O)N[C@@H](Cc1ccc(O)cc1)C(=O)N[C@H](C(=O)N[C@@H](C)C(=O)N[C@@H](Cc1ccc(O)cc1)C(=O)N[C@@H](CC(C)C)C(=O)O)C(C)C)[C@@H](C)CC)C(C)C)[C@@H](C)O [WIQPATAVIPYVAYL]

MIC [42]: ≥ 78.1 µM | MIC [43]: 4.88 µM (≈ 10.5 µg/mL)
SMILES: CC[C@H](C)[C@H](NC(=O)[C@@H](N)Cc1c[nH]c2ccccc12)C(=O)N[C@@H](CCC(N)=O)C(=O)N1CCC[C@H]1C(=O)N[C@@H](CCCCN)C(=O)N[C@H](C(=O)N[C@@H](CCCCN)C(=O)N[C@H](C(=O)N[C@H](C(=O)N1CCC[C@H]1C(=O)N[C@@H](Cc1c[nH]c2ccccc12)C(=O)N[C@@H](Cc1c[nH]c2ccccc12)C(=O)N[C@@H](Cc1c[nH]c2ccccc12)C(=O)N[C@@H](Cc1c[nH]c2ccccc12)C(=O)N[C@@H](Cc1c[nH]c2ccccc12)C(=O)O)[C@@H](C)CC)C(C)C)[C@@H](C)O [WIQPKTKVIPWWWWW]

MIC [42]: ≥ 625 µM | MIC [43]: ≥ 156 µM
SMILES: CC[C@H](C)[C@H](NC(=O)[C@@H](N)Cc1c[nH]c2ccccc12)C(=O)N[C@@H](CCC(N)=O)C(=O)N1CCC[C@H]1C(=O)N[C@@H](CCCCN)C(=O)N[C@H](C(=O)N[C@@H](CCCCN)C(=O)N[C@H](C(=O)N[C@H](C(=O)N1CCC[C@H]1C(=O)O)[C@@H](C)CC)C(C)C)[C@@H](C)O [WIQPKTKVIP]
